# Results: publication PMC9403976, “Elucidating the path to Plasmodium prolyl-tRNA synthetase inhibitors that overcome halofuginone resistance” (Nature Communications, 2022)
# Where “and” joins values, the source holds several entries; their conditions need not be identical. Equal entries are not always repeated. Where two headings read alike, the source gives them in different places.
# Legend:
# [1] = tested on: HFGR-I P. falciparum (elevated proline homeostasis and PfcProRS^L482H); assay: P. falciparum ABS growth assay, SYBR Green, 72 h, HFGR-I parasites; format: cell-based, Plasmodium falciparum; conditions: HFGR-I
# In short: (§1)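 Growth inhibition of the resistant and induced Dd2 lines is measured over 72 h in triplicate dose-response, starting at 1% parasitemia and 1% hematocrit. SYBR Green 1 staining gives the fluorescence readout, normalized between 10 μM dihydroartemisinin and no-compound wells.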
# [2] = tested on: P. falciparum Dd2-2D4; assay: P. falciparum asexual blood stage (ABS) growth assay, SYBR Green, 72 h, wild-type parasites; format: cell-based, Plasmodium falciparum; conditions: for parasite growth, replicate wells (Fig 1b): Dd2-2D4
# [3] = tested on: halofuginone-induced P. falciparum (elevated proline homeostasis); assay: P. falciparum ABS growth assay, SYBR Green, 72 h, halofuginone-induced parasites; format: cell-based, Plasmodium falciparum; conditions: for parasite growth, replicate wells (Fig 1b): Halofuginone-Induced
# In short: as §1
# [4] = target: T1, PfcProRS (Plasmodium falciparum, UniProt Q8I5R7); format: binding; conditions: for dose-response signal (normalized), SI Fig 8: single replicates
# T1 construct: made in house; host or cells: E. coli SoluBL-21
# T1 sequence (Q8I5R7 249-746): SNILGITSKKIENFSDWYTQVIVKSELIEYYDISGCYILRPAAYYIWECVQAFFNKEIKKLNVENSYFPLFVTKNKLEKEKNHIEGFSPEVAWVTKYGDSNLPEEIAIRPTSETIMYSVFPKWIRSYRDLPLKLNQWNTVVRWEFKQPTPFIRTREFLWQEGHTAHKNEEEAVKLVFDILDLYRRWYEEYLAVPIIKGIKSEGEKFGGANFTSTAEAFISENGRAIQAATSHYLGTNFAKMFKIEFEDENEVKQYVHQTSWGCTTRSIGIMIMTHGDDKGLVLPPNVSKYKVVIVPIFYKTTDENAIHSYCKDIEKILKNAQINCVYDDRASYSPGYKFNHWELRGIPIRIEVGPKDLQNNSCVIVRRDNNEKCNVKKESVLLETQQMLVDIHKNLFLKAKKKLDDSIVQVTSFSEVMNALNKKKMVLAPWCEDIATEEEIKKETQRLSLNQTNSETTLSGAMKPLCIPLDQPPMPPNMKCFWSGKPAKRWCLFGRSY
smiles,measurement,setting,value
"O=C(NC1Cc2ccccc2C1)c1nccnc1NC(=O)C1CCCCC1 [compound 2, reference compound]","parasite growth, replicate wells (Fig 1b)",[1]; Log[inhibitor] (M) -6.222,6.90E+01 (2×) and 7.10E+01
same,"parasite growth, replicate wells (Fig 1b)",[1]; Log[inhibitor] (M) -6.638,8.90E+01 and 9.90E+01 and 9.60E+01
same,"parasite growth, replicate wells (Fig 1b)",[1]; Log[inhibitor] (M) -7.046,9.70E+01 and 1.01E+02 (2×)
same,"parasite growth, replicate wells (Fig 1b)",[1]; Log[inhibitor] (M) -7.450,8.80E+01 and 9.60E+01 and 1.00E+02
same,"parasite growth, replicate wells (Fig 1b)",[1]; Log[inhibitor] (M) -7.854,1.06E+02 and 1.07E+02 and 9.90E+01
same,"parasite growth, replicate wells (Fig 1b)",[1]; Log[inhibitor] (M) -8.260,1.03E+02 and 9.80E+01 and 1.01E+02
same,"parasite growth, replicate wells (Fig 1b)",[1]; Log[inhibitor] (M) -8.699,9.70E+01 (2×) and 9.90E+01
same,"parasite growth, replicate wells (Fig 1b)",[1]; Log[inhibitor] (M) -9.000,1.04E+02 and 1.02E+02 and 9.80E+01
same,"parasite growth, replicate wells (Fig 1b)",[1]; Log[inhibitor] (M) -9.488,9.60E+01 and 9.50E+01 and 9.40E+01
same,"parasite growth, replicate wells (Fig 1b)",[2]; Log[inhibitor] (M) -5.000,1.00E+00 (2×) and 0.00E+00
same,"parasite growth, replicate wells (Fig 1b)",[2]; Log[inhibitor] (M) -5.301,0.00E+00 (2×) and -2.00E+00
same,"parasite growth, replicate wells (Fig 1b)",[2]; Log[inhibitor] (M) -5.602,1.00E+00 and -1.00E+00 and 2.00E+00
same,"parasite growth, replicate wells (Fig 1b)",[2]; Log[inhibitor] (M) -5.903,1.70E+01 and 1.20E+01 and 1.60E+01
same,"parasite growth, replicate wells (Fig 1b)",[2]; Log[inhibitor] (M) -6.204,4.80E+01 (2×) and 4.40E+01
same,"parasite growth, replicate wells (Fig 1b)",[2]; Log[inhibitor] (M) -6.505,8.30E+01 (2×) and 8.20E+01
same,"parasite growth, replicate wells (Fig 1b)",[2]; Log[inhibitor] (M) -6.806,1.04E+02 and 1.00E+02 and 1.01E+02
same,"parasite growth, replicate wells (Fig 1b)",[2]; Log[inhibitor] (M) -7.107,8.30E+01 and 8.10E+01 and 8.20E+01
same,"parasite growth, replicate wells (Fig 1b)",[2]; Log[inhibitor] (M) -7.408,8.20E+01 and 7.90E+01 and 8.10E+01
same,"parasite growth, replicate wells (Fig 1b)",[2]; Log[inhibitor] (M) -7.709,9.90E+01 and 8.20E+01 and 1.00E+02
same,"parasite growth, replicate wells (Fig 1b)",[2]; Log[inhibitor] (M) -8.010,9.50E+01 and 1.05E+02 and 1.00E+02
same,"parasite growth, replicate wells (Fig 1b)",[2]; Log[inhibitor] (M) -8.311,8.90E+01 and 1.00E+02 and 9.90E+01
same,EC50,"[2]; Plasmodium falciparum, DD2, SI Fig 16b, values on -log scale, read-out: ABS - Dd2-2D4 (converted)",596 nM
same,"parasite growth, replicate wells (Fig 1b)",[3]; Log[inhibitor] (M) -5.000,1.00E+00
same,"parasite growth, replicate wells (Fig 1b)",[3]; Log[inhibitor] (M) -5.408,2.00E+00
same,"parasite growth, replicate wells (Fig 1b)",[3]; Log[inhibitor] (M) -5.816,2.40E+01 (2×) and 2.50E+01
same,"parasite growth, replicate wells (Fig 1b)",[3]; Log[inhibitor] (M) -6.222,9.70E+01 and 1.00E+02 and 9.90E+01
same,"parasite growth, replicate wells (Fig 1b)",[3]; Log[inhibitor] (M) -6.638,1.00E+02 and 1.02E+02 and 1.04E+02
same,"parasite growth, replicate wells (Fig 1b)",[3]; Log[inhibitor] (M) -7.046,1.00E+02 and 9.10E+01 and 1.03E+02
same,"parasite growth, replicate wells (Fig 1b)",[3]; Log[inhibitor] (M) -7.450,9.40E+01 and 9.70E+01 and 9.80E+01
same,"parasite growth, replicate wells (Fig 1b)",[3]; Log[inhibitor] (M) -7.854,9.70E+01 (2×) and 1.00E+02
same,"parasite growth, replicate wells (Fig 1b)",[3]; Log[inhibitor] (M) -8.260,1.00E+02 and 9.20E+01 and 9.80E+01
same,"parasite growth, replicate wells (Fig 1b)",[3]; Log[inhibitor] (M) -8.699,9.70E+01 (2×) and 9.80E+01
same,"parasite growth, replicate wells (Fig 1b)",[3]; Log[inhibitor] (M) -9.000,1.00E+02 and 9.60E+01 and 9.80E+01
same,"parasite growth, replicate wells (Fig 1b)",[3]; Log[inhibitor] (M) -9.488,9.80E+01 (2×) and 9.90E+01
same,"dose-response value, Replicates 1-3 (SI Fig 2e)",[3]; Log[inhibitor] (M) -5.000,1.0
same,"dose-response value, Replicates 1-3 (SI Fig 2e)",[3]; Log[inhibitor] (M) -5.408,2.0
same,"dose-response signal (normalized), SI Fig 8",[4]; Log[inhibitor] (M) -6.301,1.92E-01 and 4.91E-02 and 9.09E-02 and 1.28E-01 and 2.12E-01 and 1.32E-01
same,"dose-response signal (normalized), SI Fig 8",[4]; Log[inhibitor] (M) -6.602,2.13E-01 and 1.64E-01 and 1.25E-01 and 4.31E-02 and 9.86E-02 and 8.65E-02
same,"dose-response signal (normalized), SI Fig 8",[4]; Log[inhibitor] (M) -6.904,1.14E-01 and 8.81E-02 and 8.34E-02 and 1.41E-01 and 2.01E-01 and 1.23E-01
same,"dose-response signal (normalized), SI Fig 8",[4]; Log[inhibitor] (M) -7.205,2.07E-01 and 2.31E-01 and 1.85E-01 and 3.09E-01 and 3.02E-01 and 1.82E-01
same,"dose-response signal (normalized), SI Fig 8",[4]; Log[inhibitor] (M) -7.506,4.98E-01 and 4.91E-01 and 5.79E-01 and 3.60E-01 and 6.32E-01 and 4.92E-01
same,"dose-response signal (normalized), SI Fig 8",[4]; Log[inhibitor] (M) -7.796,7.43E-01 and 8.09E-01 and 7.32E-01 and 8.58E-01 and 7.28E-01 and 7.94E-01
same,"dose-response signal (normalized), SI Fig 8",[4]; Log[inhibitor] (M) -8.097,9.39E-01 and 7.78E-01 and 8.55E-01 and 1.05E+00 and 7.40E-01 and 9.07E-01
same,"dose-response signal (normalized), SI Fig 8",[4]; Log[inhibitor] (M) -8.407,8.45E-01 and 1.01E+00 and 1.04E+00 and 1.10E+00 and 1.00E+00 and 9.65E-01
same,"dose-response signal (normalized), SI Fig 8",[4]; Log[inhibitor] (M) -8.708,1.03E+00 and 1.01E+00 and 9.69E-01 and 1.00E+00 and 9.25E-01 and 9.85E-01
same,"dose-response signal (normalized), SI Fig 8",[4]; Log[inhibitor] (M) -9.018,1.01E+00 and 9.85E-01 and 9.47E-01 and 1.02E+00 (2×) and 9.53E-01
same,"dose-response signal (normalized), SI Fig 8",[4]; Log[inhibitor] (M) -9.319,1.08E+00 and 9.09E-01 and 9.54E-01 and 9.77E-01 and 1.04E+00 and 9.33E-01
same,"dose-response signal (normalized), SI Fig 8",[4]; Log[inhibitor] (M) -9.620,9.48E-01 and 9.58E-01 and 1.04E+00 and 1.08E+00 and 1.01E+00 and 9.21E-01
same,"dose-response signal (normalized), SI Fig 8",[4]; Log[inhibitor] (M) -9.921,1.02E+00 and 1.01E+00 and 9.29E-01 and 9.34E-01 and 1.07E+00 and 9.91E-01
same,"dose-response signal (normalized), SI Fig 8",[4]; Log[inhibitor] (M) -10.097,9.97E-01 and 1.11E+00 (2×) and 9.85E-01 and 1.06E+00 and 9.77E-01
same,"dose-response signal (normalized), SI Fig 8",[4]; Log[inhibitor] (M) -10.585,1.09E+00 and 8.10E-01 and 1.01E+00 and 1.14E+00 and 1.16E+00 and 1.07E+00
same,PfcProRS -- best Kd,"[4]; SI Fig 16a, values on -log scale",8.144
